The compounds below were run on S. aureus strain Newman (assay: IC50 determination of inhibition of staphyloxanthin synthesis). Conditions: Staphylococcus aureus; S. aureus strain Newman, Table 1; read-out: IC50, inhibitory activity on staphyloxanthin synthesis.
Type: cell-based
Procedure: Selection of compound concentrations: based on the preliminary screening results, the ability of each compound to inhibit staphyloxanthin synthesis was determined. […] According to the assay results, 10 different concentration gradients were designed for each compound, such that the ability to inhibit staphyloxanthin synthesis comprised substantially from 0% to 100%.
Culture of the strains: single colonies of strain Newman and crtN mutant strain were picked from TSA plates, added into test tubes containing 4 mL of sterile TSB medium, and cultured at 37° C. and 250 rpm for 12 h for later use.
The relative level of staphyloxanthin synthesis at each concentration of the compound of the invention=A450 (sample)/A450 (negative control)*100%. With the molar concentration of the compound as the abscissa and the relative level of staphyloxanthin synthesis as the ordinate, a curve fitting of inhibitor concentration-inhibition rate (log(inhibitor) vs response) was performed in Graphpad prism 5.0 software, and the IC50 of the compound for inhibiting staphyloxanthin synthesis was calculated by software based on the fitting results.
S. aureus was selected for IC50 determination with respect to activity of inhibiting staphyloxanthin synthesis. […]
`CN(C/C=C/c1ccccc1)Cc1coc2ccccc12` [Compound IA-1, (E)-N-methyl-N-[(benzofuran-3-yl)methylene]-3-phenylprop-2-en-1-amine] was tested, and the IC50 was greater than 1000 nM. `CN(C/C=C/c1ccc(C(F)(F)F)cc1)Cc1coc2ccccc12` [Compound IA-2, (E)-N-methyl-N-[(benzofuran-3-yl)methylene]-3-(4-trifluoromethylphenyl)-prop-2-en-1-amine] showed an IC50 of 9.8 ± 0.3 nM. For `CN(C/C=C/c1ccc(Cl)cc1)Cc1coc2ccccc12` [Compound IA-3, (E)-N-methyl-N-[(benzofuran-3-yl)methylene]-3-(4-chlorophenyl)prop-2-en-1-amine], the IC50 was 4.9 ± 0.1 nM. `CN(C/C=C/c1ccc(F)cc1)Cc1coc2ccccc12` [Compound IA-4, (E)-N-methyl-N-[(benzofuran-3-yl)methylene]-3-(4-fluorophenyl)prop-2-en-1-amine] showed an IC50 of 74.1 ± 2.7 nM. Compound `CN(C/C=C/c1ccc(Br)cc1)Cc1coc2ccccc12` [Compound IA-5, (E)-N-methyl-N-[(benzofuran-3-yl)methylene]-3-(4-bromophenyl)prop-2-en-1-amine] has an IC50 of 2.5 ± 0.3 nM. `CN(C/C=C/c1ccc(C(F)F)cc1)Cc1coc2ccccc12` [Compound IA-6, (E)-N-methyl-N-[(benzofuran-3-yl)methylene]-3-(4-difluoromethylphenyl)-prop-2-en-1-amine] was tested, and the IC50 was 6.4 ± 0.1 nM. For `CN(C/C=C/C1CCCC1)Cc1coc2ccccc12` [Compound IA-7, (E)-N-methyl-N-[(benzofuran-3-yl)methylene]-3-(4-cyclopentyl)prop-2-en-1-amine], the IC50 was 397 ± 20.3 nM. For `CN(C/C=C/c1ccccc1Cl)Cc1coc2ccccc12` [Compound IA-8, (E)-N-methyl-N-[(benzofuran-3-yl)methylene]-3-(2-chlorophenyl)prop-2-en-1-amine], the IC50 was 360 ± 57.8 nM. `CN(C/C=C/c1ccc(C(F)(F)F)c(F)c1)Cc1coc2ccccc12` [Compound IA-9, (E)-N-methyl-N-[(benzofuran-3-yl)methylene]-3-(3-fluoro-4-trifluoromethyl-phenyl)prop-2-ene-1-the amine] showed an IC50 greater than 1000 nM. For `CN(C/C=C/c1cccc2ccccc12)Cc1coc2ccccc12` [Compound IA-10, (E)-N-methyl-N-[(benzofuran-3-yl)methylene]-3-(naphthalen-1-yl)prop-2-en-1-amine], the IC50 was greater than 1000 nM. `CN(C/C=C/c1ccc(Cl)cc1Cl)Cc1coc2ccccc12` [Compound IA-11, (E)-N-methyl-N-[(benzofuran-3-yl)methylene]-3-(2,4-dichlorophenyl)prop-2-en-1-amine] was tested, and the IC50 was 6.2 ± 0.5 nM. `CN(C/C=C/c1cccc(Cl)c1)Cc1coc2ccccc12` [Compound IA-12, (E)-N-methyl-N-[(benzofuran-3-yl)methylene]-3-(3-chlorophenyl)prop-2-en-1-amine] showed an IC50 greater than 1000 nM. `COC(=O)c1ccc(/C=C/CN(C)Cc2coc3ccccc23)cc1` [Compound IA-13, (E)-N-methyl-N-[(benzofuran-3-yl)methylene]-3-(4-methylcarboxylatephenyl)prop-2-en-1-amine] showed an IC50 of 9.45 ± 0.75 nM. Compound `CN(C/C=C/c1ccco1)Cc1coc2ccccc12` [Compound IA-14] has an IC50 greater than 1000 nM. In the case of `CN(C/C=C/c1ccc([N+](=O)[O-])cc1)Cc1coc2ccccc12` [Compound IA-16, (E)-N-methyl-N-[(benzofuran-3-yl)methylene]-3-(4-nitrophenyl)-prop-2-en-1-amine], the IC50 is reported as 9.5 ± 3.2 nM. `CCOc1ccc(/C=C/CN(C)Cc2coc3ccccc23)cc1` [Compound IA-17, (E)-N-methyl-N-[(benzofuran-3-yl)methylene]-3-(4-ethoxyphenyl)-prop-2-en-1-amine] was tested, and the IC50 was greater than 1000 nM. `CN(C/C=C/c1cccc(C(F)(F)F)c1)Cc1coc2ccccc12` [Compound IA-18, (E)-N-methyl-N-[(benzofuran-3-yl)methylene]-3-(3-trifluoromethylphenyl)-prop-2-en-1-amine] was tested, and the IC50 was greater than 1000 nM. With `CN(C/C=C/c1cccc(F)c1)Cc1coc2ccccc12` [Compound IA-19, (E)-N-methyl-N-[(benzofuran-3-yl)methylene]-3-(3-fluorophenyl)-prop-2-en-1-amine] the IC50 was greater than 1000 nM. Compound `COc1cccc(/C=C/CN(C)Cc2coc3ccccc23)c1` [Compound IA-20, (E)-N-methyl-N-[(benzofuran-3-yl)methylene]-3-(3-methoxyphenyl)-prop-2-en-1-amine] has an IC50 greater than 1000 nM. In the case of `Cc1ccc(/C=C/CN(C)Cc2coc3ccccc23)cc1` [Compound IA-21, (E)-N-methyl-N-[(benzofuran-3-yl)methylene]-3-(4-methylphenyl)-prop-2-en-1-amine], the IC50 is reported as 9.9 ± 1.8 nM. `CN(C/C=C/c1ccccc1[N+](=O)[O-])Cc1coc2ccccc12` [Compound IA-22, (E)-N-methyl-N-[(benzofuran-3-yl)methylene]-3-(2-nitrophenyl)-prop-2-en-1-amine] showed an IC50 greater than 1000 nM. Work on `C/C=C/CN(C)Cc1coc2ccccc12` [Compound IA-23] yielded an IC50 greater than 1000 nM. With `CN(C/C=C/c1ccc(C#N)cc1)Cc1coc2ccccc12` [Compound IA-24, (E)-N-Methyl-N-[(benzofuran-3-yl)methylene]-3-(4-cyanophenyl)-prop-2-en-1-amine] the IC50 was 80.1 ± 4.7 nM. For `CN(C/C=C/c1ccc2ccccc2c1)Cc1coc2ccccc12` [Compound IA-26, (E)-N-methyl-N-[(benzofuran-3-yl)methylene]-3-(2-naphthyl)-prop-2-en-1-amine], the IC50 was 6.4 ± 0.6 nM. `CN(C/C=C/c1ccc(C(C)(C)C)cc1)Cc1coc2ccccc12` [Compound IA-27, (E)-N-methyl-N-[(benzofuran-3-yl)methylene]-3-(4-tert-butylphenyl)-prop-2-en-1-amine] gave an IC50 greater than 1000 nM. `CN(C/C=C/c1ccccc1F)Cc1coc2ccccc12` [Compound IA-28, (E)-N-methyl-N-[(benzofuran-3-yl)methylene]-3-(2-fluorophenyl)-prop-2-en-1-amine] was tested, and the IC50 was greater than 1000 nM. `CN(C/C=C/c1cccc([N+](=O)[O-])c1)Cc1coc2ccccc12` [Compound IA-29, (E)-N-methyl-N-[(benzofuran-3-yl)methylene]-3-(3-nitrophenyl)-prop-2-en-1-amine] was tested, and the IC50 was greater than 1000 nM. Compound `CN(C/C=C/c1ccccc1C(F)(F)F)Cc1coc2ccccc12` [Compound IA-30, (E)-N-methyl-N-[(benzofuran-3-yl)methylene]-3-(2-trifluoromethylphenyl)-prop-2-en-1-amine] has an IC50 greater than 1000 nM. `CN(C/C=C/c1ccc(C(F)(F)F)cc1F)Cc1coc2ccccc12` [Compound IA-31, (E)-N-methyl-N-[(benzofuran-3-yl)methylene]-3-(2-fluoro-4-trifluoromethyl-phenyl)-prop-2-en-1-amine] showed an IC50 of 9.2 ± 0.4 nM. Work on `CN(C/C=C/C1CCCCC1)Cc1coc2ccccc12` [Compound IA-32] yielded an IC50 greater than 1000 nM. `CN(C/C=C/c1cccs1)Cc1coc2ccccc12` [Compound IA-33, (E)-N-methyl-N-[(benzofuran-3-yl)methylene]-3-thiophen-2-en-1-amine] was tested, and the IC50 was greater than 1000 nM. Work on `COc1ccccc1/C=C/CN(C)Cc1coc2ccccc12` [Compound IA-34, (E)-N-methyl-N-[(benzofuran-3-yl)methylene]-3-(2-methoxyphenyl)-prop-2-en-1-amine] yielded an IC50 greater than 1000 nM. Work on `COc1ccc(/C=C/CN(C)Cc2coc3ccccc23)c(F)c1` [Compound IA-35, (E)-N-methyl-N-[(benzofuran-3-yl)methylene]-3-(2-fluoro-4-methoxyphenyl)-prop-2-en-1-amine] yielded an IC50 greater than 1000 nM.
